Assay results as given in the OligoGym collection.
HELM strings list units from the 5' end as sugar, base in round brackets, then linkage (d deoxyribose, r ribose, m 2'-O-methyl, p phosphodiester). Strings are as the collection lists them; they lack the last nucleoside at the 3' end of the tested compound. [moe] = 2'-O-(2-methoxyethyl) (MOE); [sp] = phosphorothioate linkage; [m5C] = 5-methylcytosine

These substances were tested against C9ORF72 (assay: mouse, dose not given). Conditions: ASO.

| Substance | 3 h FOB score |
| --- | --- |
| RNA1{[moe](G)[sp].[moe]([m5C])p.[moe](T)p.[moe](G)p.[moe]([m5C])p.[moe](G)[sp].d(G)[sp].d(T)[sp].d(T)[sp].d(G)[sp].d(T)[sp].d(T)[sp].d(T)[sp].d([m5C])[sp].[moe]([m5C])p.[moe]([m5C])[sp].[moe](T)}$$$$ (last 3' nucleoside missing) | 5.5 score 0-7 |
| RNA1{[moe](A)[sp].[moe](G)p.[moe](G)p.[moe]([m5C])p.d(T)[sp].d(G)[sp].d([m5C])[sp].d(G)[sp].d(G)[sp].d(T)[sp].d(T)[sp].d(G)[sp].d(T)[sp].d(T)[sp].[moe](T)p.[moe]([m5C])p.[moe]([m5C])p.[moe]([m5C])[sp].[moe](T)}$$$$ (last 3' nucleoside missing) | 6.25 score 0-7 |
| RNA1{[moe]([m5C])[sp].[moe](A)p.[moe](G)p.[moe](G)p.[moe]([m5C])p.[moe](T)p.d(G)[sp].d([m5C])[sp].d(G)[sp].d(G)[sp].d(T)[sp].d(T)[sp].d(G)[sp].d(T)[sp].d(T)[sp].[moe](T)p.[moe]([m5C])[sp].[moe]([m5C])}$$$$ (last 3' nucleoside missing) | 6 score 0-7 |
| RNA1{[moe](T)[sp].[moe]([m5C])p.[moe](T)p.[moe](G)p.d(T)[sp].d([m5C])[sp].d(T)[sp].d(T)[sp].d(T)[sp].d(G)[sp].d(G)[sp].d(A)[sp].d(G)[sp].d([m5C])[sp].[moe]([m5C])p.[moe]([m5C])p.[moe](A)p.[moe](A)[sp].[moe](A)}$$$$ (last 3' nucleoside missing) | 6.75 score 0-7 |
| RNA1{[moe](T)[sp].[moe]([m5C])p.[moe](T)p.d(G)[sp].d(T)[sp].d([m5C])[sp].d(T)[sp].d(T)[sp].d(T)[sp].d(G)[sp].d(G)[sp].d(A)[sp].d(G)[sp].[moe]([m5C])p.[moe]([m5C])p.[moe]([m5C])p.[moe](A)p.[moe](A)[sp].[moe](A)}$$$$ (last 3' nucleoside missing) | 6.75 score 0-7 |
| RNA1{[moe](G)[sp].[moe]([m5C])p.[moe]([m5C])p.[moe](T)p.[moe](T)p.[moe](A)p.[moe]([m5C])[sp].d(T)[sp].d([m5C])[sp].d(T)[sp].d(A)[sp].d(G)[sp].d(G)[sp].d(A)[sp].d([m5C])[sp].[moe]([m5C])[sp].[moe](A)}$$$$ (last 3' nucleoside missing) | 2.5 score 0-7 |
| RNA1{[moe](A)[sp].[moe](G)p.[moe](G)p.[moe]([m5C])p.[moe](T)p.[moe](G)p.d([m5C])[sp].d(G)[sp].d(G)[sp].d(T)[sp].d(T)[sp].d(G)[sp].d(T)[sp].d(T)[sp].d(T)[sp].[moe]([m5C])p.[moe]([m5C])[sp].[moe]([m5C])}$$$$ (last 3' nucleoside missing) | 6 score 0-7 |
| RNA1{[moe]([m5C])[sp].[moe](T)p.[moe](G)p.[moe](G)p.d(T)[sp].d(T)[sp].d(A)[sp].d(A)[sp].d(T)[sp].d([m5C])[sp].d(T)[sp].d(T)[sp].d(T)[sp].d(A)[sp].[moe](T)p.[moe]([m5C])p.[moe](A)p.[moe](G)[sp].[moe](G)}$$$$ (last 3' nucleoside missing) | 0 score 0-7 |
